Values of other authors as cited in patent US20200360268A1, “INJECTABLE PHARMACEUTICAL COMPOSITION CONTAINING MELOXICAM, AND PREPARATION METHOD THEREFOR” (Jiangsu Hengrui Medicine Co., Ltd., priority 2017, published 2020).
≈ marks a conversion by molar mass, not a printed value.

Conditions: pH 1.2 and 4.0

- solubility: 0.6 µg/mL (≈ 1.71 µM)
Compound: Cc1cnc(NC(=O)C2=C(O)c3ccccc3S(=O)(=O)N2C)s1 [Meloxicam]
